# In US20150209263A1, “Method and Compositions for Oral Hygiene” (Imrex, Inc., priority 2003, published 2015):
# “Also recorded” adds a separate entry of the source.
# Tested on: cats with recalcitrant stomatitis
# Test: Treatment of cats with recalcitrant stomatitis (case reports)
# Type: in vivo
# Conditions: single cat case reports
# Experimental: Several cats experiencing recalcitrant stomatitis were treated using oral hygiene composition of the present invention further comprising emilgase. All compositions comprised 0.05% emilgase. All treatments were 5 mL/500 mL water (10 mL/L rate). If additional water was required after the 500 mL was consumed, plain water was offered. Any unconsumed solution was discarded after 24 hours and fresh solution was mixed.
row,SMILES,response of stomatitis to treatment
1,CN1CCN(c2c(F)cc3c(=O)c(C(=O)O)cn4c3c2OCN4C)CC1 [Zeniquin],responded well
2,CC[C@H]1OC(=O)[C@H](C)[C@@H](O[C@H]2C[C@@](C)(OC)[C@@H](O)[C@H](C)O2)[C@H](C)[C@@H](O[C@@H]2O[C@H](C)C[C@H](N(C)C)[C@H]2O)[C@](C)(O)C[C@@H](C)CN(C)[C@H](C)[C@@H](O)[C@]1(C)O [Zithromax],temporary responses; also recorded: did not respond
